Laboratory results reported in US20160178628A1, “Electrical Cell-substrate Impedance Sensor (ECIS)” (priority 2015, published 2016).

How the values were obtained:
[1] = test system: tubulin assemblies of MCF-7 cells; experiment: Confocal microscopy of tubulin assemblies of MCF-7 cells; assay type: cell-based, human
Experimental: In addition, an un-treated control sample was prepared as reference for comparison. Then, samples were washed with PBS and permeabilized with microtubule stabilizing buffer [80 mM PIPES-KOH (pH 6.8), 5 mM EGTA, and 1 mM MgCl2 containing 0.5% Triton X-100] for 5 min at room temperature before being fixed with chilled absolute methanol for 10 min at −20° C. Thereafter, the fixed cells were washed and incubated with monoclonal mouse anti-α-tubulin antibody (Sigma Co.) for 1 hour at room temperature followed by incubation with FITC-conjugated antimouse IgG antibody (Santa Cruz Biotechnology). The stained cells were mounted with Vectashield (Vector Laboratories, Burlingame, Calif.) and observed by confocal microscopy.

MCF-7 cells = experiment: SiNW-ECIS impedance and capacitance measurement of drug-treated MCF-7 cells; assay type: cell-based, human; settings: for change of norm in impedance of treated cells, T1 vs. T2: 2 hours vs. 6 hours after drug incubation; for norm of capacitive changes, control sample more than treated sample: 6 hours after drug incubation (T2)
Experimental: In this example, the diagnostic response of cells membrane to extremely low dose of antitubulin drugs is investigated. Initially, MCF-7 cell lines, isolated from grade I human breast tumors, were obtained from the National Cell Bank of Iran (Pasteur Institute). Then, cells were maintained in a CO2 incubator (37° C., 5% CO2) in RPMI-1640 medium supplemented with 5% fetal bovine serum, and 1% penicillin/streptomycin. The fresh medium was replaced every other day. Then, the cultured cells were dropped on the surface of the SiNW-ECIS, designed and fabricated pursuant to teachings of the present application. Prior to each experiment, cells were trypsinized to be detached from the substrate and resuspended on the SiNW surface. To minimize the effect of trypsinization, the procedure may last for less than 4 minutes at room temperature of about 20° C. The samples were held in an incubator for about 4 hours to achieve cells attachment on the SiNWs. Thereafter, the ABZ drug with low concentrations of about 2.1 nano-moles per liter and the PTX drug with low concentrations of about 0.1 nano-moles per liter were added to individual samples. Finally, the signal recording and biological assays were investigated about 2 hours and 6 hours after the drug treatment (6 hours and 10 hours after the beginning of culturing process).
Referring to FIGS. 12A-12G, comparative normalized diagrams of impedance (designated by ΔZ % and represented by solid black lines) and capacitance changes (designated by ΔC % and represented by dashed grey lines) are illustrated for MCF-7 cells seeded on SiNW electrodes after treating by 2.1 nano-moles per liter of ABZ and 0.1 nano-moles per liter of PTX. The time interval between the drug incubation and the signal extraction are 2 hours (designated by T1) and 6 hours (designated by T2). In addition, the same diagrams are plotted for control sample prepared with no drug treatment stage.
According to the method described in the present example, the samples were maintained in an incubator so that the signal extraction was repeated 10 hours after cells dropping (6 hours after drug incubation for treated samples) to monitor the time evolution of drug induced MT polymerization/depolymerization on bioelectrical response of the membrane.

[2] = MCF-7, ABZ 2.1 nano-moles per liter, 2 hours after drug incubation (T1)
[3] = MCF-7, ABZ 2.1 nano-moles per liter
[4] = MCF-7, PTX 0.1 nano-moles per liter, 2 hours after treatment (T1)
[5] = MCF-7, PTX 0.1 nano-moles per liter

Row | Structure (SMILES) | spindle / microtubule morphology (confocal image) ([1]; MCF-7, ABZ 2.1 nano-moles per liter, 2 hours after treatment) | spindle / microtubule morphology (confocal image) ([1]; MCF-7, ABZ 2.1 nano-moles per liter, 6 hours after treatment) | changes in membrane impedance versus control (MCF-7 cells; [2]) [%] | variations in capacitance of the sensor versus control (MCF-7 cells; [2]) [%] | change of norm in impedance of treated cells, T1 vs. T2 (MCF-7 cells; [3]) | norm of capacitive changes, control sample more than treated sample (MCF-7 cells; [3]) | spindle / microtubule morphology (confocal image) ([1]; MCF-7, PTX 0.1 nano-moles per liter, 2 hours after treatment) | spindle / microtubule morphology (confocal image) ([1]; MCF-7, PTX 0.1 nano-moles per liter, 6 hours after treatment) | variation in mean capacitance of the sensor versus control (MCF-7 cells; [4]) | variation in mean impedance of the sensor versus control (MCF-7 cells; [4]) | change of norm in impedance of treated cells, T1 vs. T2 (MCF-7 cells; [5]) [%] | norm of capacitive changes, control sample more than treated sample (MCF-7 cells; [5]) [%]
1 | CCCSc1ccc2nc(NC(=O)OC)[nH]c2c1 [ABZ, Albendazole] | abnormally reduced numbers of spindles or monopolar (monoaster) spindles | monoastered MTs are observable | 25 | 70 | about 60% | about 90% |  |  |  |  |  | 
2 | CC(=O)O[C@H]1C(=O)[C@@]2(C)[C@H]([C@H](OC(=O)c3ccccc3)[C@]3(O)C[C@H](OC(=O)[C@H](O)[C@@H](NC(=O)c4ccccc4)c4ccccc4)C(C)=C1C3(C)C)[C@]1(OC(C)=O)CO[C@@H]1C[C@@H]2O [PTX, Paclitaxel] |  |  |  |  |  |  | aggregated spindles | increased aggregation in MT spindles | about 60% | about 50% | 15 | ~75
